≈ marks a conversion by molar mass, not a printed value. Calls of active or inactive are those of the source. No cut-off for these calls is given here. Square brackets hold non-standard residues; d marks the D form. Peptide text beside a SMILES is read from it. Dip = N[C@H](C(=O)O)C(c1ccccc1)c1ccccc1; 2Nal = N[C@@H](Cc1ccc2ccccc2c1)C(=O)O
Experiments:
Lipid bilayer [1] = test: Membrano-lytic effect in mammalian membrane mimic DOPC/cholesterol (10:1) large unilamellar vesicles assessed as calcein leakage measured at 50 microg/ml measured upto 100 mins for every 10 mins by multimode microplate reader assay; format: cell membranes; conditions: dose 50.0 µg/ml
Lipid bilayer [2] = test: Membrano-lytic effect in bacterial inner membrane mimic DOPC/DOPG (7:3) large unilamellar vesicles assessed as calcein leakage measured at 50 microg/ml, incubated for 100 mins by multimode microplate reader assay; format: cell membranes; conditions: dose 50.0 µg/ml
Staphylococcus aureus [3] = test: Antibacterial activity against methicillin resistant Staphylococcus aureus ATCC BAA-1556 after 24 hrs in presence of 2 mM of CaCl2 by microtiter plate method; format: functional
Escherichia coli [4] = test: Bactericidal activity against Escherichia coli ATCC BAA-2452 assessed as reduction of bacterial growth at 4 times MIC by counting formed colonies; format: functional, organism-based; conditions: time <= 4.0 hrs, TDE = time-dependent effect
Staphylococcus aureus [5] = test: Bactericidal activity against methicillin resistant Staphylococcus aureus ATCC BAA-1556 assessed as time required for complete reduction of bacterial growth at 4 times MIC by counting formed colonies; format: functional
Staphylococcus aureus [6] = test: Antibacterial activity against methicillin resistant Staphylococcus aureus ATCC BAA-1556 incubated for 24 hrs by microtiter plate method; format: functional; conditions: Staphylococcus aureus, ATCC BAA-1556, 24 h, read-out: MIC
Staphylococcus aureus [7] = test: Antibacterial activity against methicillin resistant Staphylococcus aureus ATCC BAA-1556 incubated for 24 hrs; format: functional
Enterococcus faecalis [8] = test: Antibacterial activity against vancomycin-resistant Enterococcus faecalis ATCC 51575 incubated for 24 hrs by microtiter plate method; format: functional
Staphylococcus aureus [9] = test: Antibacterial activity against methicillin resistant Staphylococcus aureus ATCC BAA-1556 after 24 hrs in presence of 150 mM of NaCl by microtiter plate method; format: functional
Staphylococcus aureus [10] = test: Bactericidal activity against methicillin resistant Staphylococcus aureus ATCC BAA-1556 assessed as reduction of bacterial growth at MIC by counting formed colonies; format: functional, organism-based; conditions: time <= 4.0 hrs, TDE = time-dependent effect
Enterococcus faecalis [11] = test: Antibacterial activity against Enterococcus faecalis ATCC 29212 incubated for 24 hrs by microtiter plate method; format: functional
Staphylococcus aureus [12] = test: Antibacterial activity against Staphylococcus aureus ATCC 29213 incubated for 24 hrs by microtiter plate method; format: functional; conditions: Staphylococcus aureus, ATCC 29213, read-out: MIC
Escherichia coli [13] = test: Bactericidal activity against Escherichia coli ATCC BAA-2452 assessed as reduction of bacterial growth at MIC by counting formed colonies; format: functional, organism-based; conditions: time <= 4.0 hrs, TDE = time-dependent effect
Staphylococcus aureus [14] = test: Bactericidal activity against methicillin resistant Staphylococcus aureus ATCC BAA-1556 assessed as time required for complete reduction of bacterial growth at MIC by counting formed colonies; format: functional
Bacillus cereus = test: Antibacterial activity against Bacillus cereus ATCC 13061 incubated for 24 hrs by microtiter plate method; format: functional
Enterococcus faecium [15] = test: Antibacterial activity against vancomycin-resistant Enterococcus faecium ATCC 700221 incubated for 24 hrs by microtiter plate method; format: functional
Staphylococcus aureus [16] = test: Bactericidal activity against methicillin resistant Staphylococcus aureus ATCC BAA-1556 assessed as reduction of bacterial growth at 4 times MIC by counting formed colonies; format: functional, organism-based; conditions: time <= 4.0 hrs, TDE = time-dependent effect
Staphylococcus aureus [17] = test: Antibacterial activity against methicillin resistant Staphylococcus aureus ATCC BAA-1556 after 24 hrs in presence of 1 mM of by microtiter plate method; format: functional
Staphylococcus aureus [18] = test: Antibacterial activity against methicillin resistant Staphylococcus aureus ATCC BAA-1556 after 24 hrs in presence of 4.5 mM of KCl by microtiter plate method; format: functional
Staphylococcus aureus [19] = test: Antibacterial activity against methicillin resistant Staphylococcus aureus ATCC BAA-1556 after 24 hrs in presence of fetal bovine serum by microtiter plate method; format: functional
Enterococcus faecium [20] = test: Antibacterial activity against Enterococcus faecium ATCC 27270 incubated for 24 hrs by microtiter plate method; format: functional
Streptococcus pneumoniae [21] = test: Antibacterial activity against multidrug resistant […] ATCC 700677 incubated for 24 hrs by microtiter plate method; format: functional
Bacillus subtilis = test: Antibacterial activity against Bacillus subtilis ATCC 6633 incubated for 24 hrs by microtiter plate method; format: functional
Streptococcus pneumoniae [22] = test: Antibacterial activity against […] ATCC 49619 incubated for 24 hrs by microtiter plate method; format: functional
Lipid bilayer [23] = test: Membrano-lytic effect in bacterial inner membrane mimic DOPC/DOPG (7:3) large unilamellar vesicles assessed as calcein leakage measured upto 100 mins for every 10 mins by multimode microplate reader assay; format: cell membranes; conditions: dose 5-50 µg/ml, DDE = dose-dependent effect
Staphylococcus aureus [24] = test: Antibacterial activity against methicillin resistant Staphylococcus aureus ATCC BAA-1556 after 24 hrs in presence of 6 mM of NH4Cl by microtiter plate method; format: functional
MRC5 [25] = test: Cytotoxicity against human MRC-5 assessed as cell viability at 250 ug/ml incubated for 24 hrs by microplate spectrophotometer analysis method; format: toxicity, cell-based; conditions: mrc5, 24 h, dose 250 µg/ml
Escherichia coli [26] = test: Bactericidal activity against Escherichia coli ATCC BAA-2452 assessed as time required for complete reduction of bacterial growth at 4 times MIC by counting formed colonies; format: functional
[27] = Proteolytic stability in human plasma at 100 uM incubated for 30 mins by Q-TOF LC/MS analysis relative to control; format: ADME, cell-free; conditions: read-out: Stability
Cell membrane [28] = test: Membrano-lytic effect in cytoplasmic membrane of methicillin resistant Staphylococcus aureus ATCC BAA-1556 assessed as disruption by measuring propidium iodide fluorescence incubated for 1 hr by FACscan flow cytometer analysis; conditions: DDE = dose-dependent effect
Cell membrane [29] = test: Membrano-lytic effect in cytoplasmic membrane of methicillin resistant Staphylococcus aureus ATCC BAA-1556 assessed as disruption by measuring propidium iodide fluorescence at MIC incubated for 1 hr by FACscan flow cytometer analysis
HepaRG [30] = test: Cytotoxicity against human HPRGC10 assessed as cell viability at 250 ug/ml incubated for 24 hrs by microplate spectrophotometer analysis method relative to control; format: functional; conditions: read-out: Activity
Pseudomonas aeruginosa = test: Antibacterial activity against Pseudomonas aeruginosa ATCC 27883 incubated for 24 hrs by microtiter plate method; format: functional; conditions: Pseudomonas aeruginosa, ATCC 27883, 24 h, read-out: MIC
[31] = Cytotoxicity against HEK293 assessed as cell viability at 250 ug/ml incubated for 24 hrs by microplate spectrophotometer analysis method relative to control; format: toxicity, cell-based; conditions: human, HEK293 cells, at 250 µg/mL, read-out: Activity
Escherichia coli [32] = test: Bactericidal activity against Escherichia coli ATCC BAA-2452 assessed as time required for complete reduction of bacterial growth at MIC by counting formed colonies; format: functional
Lipid bilayer [33] = test: Induction of membrane disruption in bacterial inner membrane mimic DOPC/DOPG (7:3) large unilamellar vesicles assessed as decrease in particle size of liposome at 1:1 compound to lipid ratio measured after 24 hrs by dynamic light scattering analysis; format: cell membranes
[34] = Hemolytic activity in human RBC assessed as hemolysis incubated for 2 hrs by spectrophotometer analysis; format: toxicity, cell-based, Erythrocyte; conditions: human red blood cells (erythrocytes)
[35] = Proteolytic stability in human plasma at 100 uM incubated for 24 hrs by Q-TOF LC/MS analysis relative to control; format: ADME, cell-free; conditions: read-out: Stability
Cell membrane [36] = test: Membrano-lytic effect in cytoplasmic membrane of Escherichia coli ATCC BAA-2452 assessed as disruption by measuring propidium iodide fluorescence incubated for 1 hr by FACscan flow cytometer analysis; conditions: DDE = dose-dependent effect
HepaRG [37] = test: Cytotoxicity against human HPRGC10 assessed as cell viability measured after 24 hrs by microplate spectrophotometer analysis; format: functional, cell-based; conditions: dose <= 250.0 µg/ml, DDE = dose-dependent effect
Escherichia coli [38] = test: Antibacterial activity against Escherichia coli ATCC 25922 incubated for 24 hrs by microtiter plate method; format: functional; conditions: Escherichia coli, ATCC 25922, 24 h, read-out: MIC
HEK293 = test: Cytotoxicity against HEK293 assessed as cell viability measured after 24 hrs by microplate spectrophotometer analysis; format: toxicity, cell-based; conditions: human, hek293, 24 h, DDE = dose-dependent effect, dose < 250 µg/ml
MRC5 [39] = test: Cytotoxicity against human MRC-5 assessed as cell viability measured after 24 hrs by microplate spectrophotometer analysis; format: toxicity, cell-based; conditions: mrc5, 24 h, DDE = dose-dependent effect, dose < 250 µg/ml

Structure (SMILES): CCCCCCCCCC(=O)N[C@@H](Cc1c[nH]c2ccccc12)C(=O)N[C@H](CC(N)=O)C(=O)N[C@@H](CC(=O)O)C(=O)N[C@@H]1C(=O)NCC(=O)N[C@@H](CCCN)C(=O)N[C@@H](CC(=O)O)C(=O)N[C@H](C)C(=O)N[C@@H](CC(=O)O)C(=O)NCC(=O)N[C@H](CO)C(=O)N[C@@H]([C@H](C)CC(=O)O)C(=O)N[C@@H](CC(=O)c2ccccc2N)C(=O)O[C@@H]1C
- Activity (Lipid bilayer [1]): 5%
- Activity (Lipid bilayer [2]): 27%
- MIC (Staphylococcus aureus [3]): 3.1 µg/mL
- Activity (Escherichia coli [4]): Tde
- Activity (Staphylococcus aureus [5]): Active
- MIC (Staphylococcus aureus [6]): 1.5 µg/mL (≈ 0.926 µM)
- MBC (Staphylococcus aureus [7]): 6.2 µg/mL (≈ 3.83 µM)
- MIC (Enterococcus faecalis [8]): 12.5 µg/mL (≈ 7.71 µM)
- MIC (Staphylococcus aureus [9]): 0.7 µg/mL
- Activity (Staphylococcus aureus [10]): Tde
- MIC (Enterococcus faecalis [11]): 6.25 µg/mL (≈ 3.86 µM)
- MIC (Staphylococcus aureus [12]): 0.7 µg/mL (≈ 0.432 µM)
- Activity (Escherichia coli [13]): Tde
- Activity (Staphylococcus aureus [14]): Active
- MIC (Bacillus cereus): 1.5 µg/mL (≈ 0.926 µM)
- MIC (Enterococcus faecium [15]): 6.25 µg/mL (≈ 3.86 µM)
- Activity (Staphylococcus aureus [16]): Tde
- MIC (Staphylococcus aureus [17]): 3.1 µg/mL
- MIC (Staphylococcus aureus [18]): 1.5 µg/mL
- MIC (Staphylococcus aureus [19]): 3.1 µg/mL
- MIC (Enterococcus faecium [20]): 1.5 µg/mL (≈ 0.926 µM)
- MIC (Streptococcus pneumoniae [21]): 12.5 µg/mL (≈ 7.71 µM)
- MIC (Bacillus subtilis): 0.7 µg/mL (≈ 0.432 µM)
- MIC (Streptococcus pneumoniae [22]): 12.5 µg/mL (≈ 7.71 µM)
- Activity (Lipid bilayer [23]): Dde
- MIC (Staphylococcus aureus [24]): 1.5 µg/mL

Structure (SMILES): N=C(N)NCCC[C@H](NC(=O)[C@H](CCCNC(=N)N)NC(=O)[C@H](CCCNC(=N)N)NC(=O)[C@@H](N)CCCNC(=N)N)C(=O)N[C@@H](Cc1ccc2ccccc2c1)C(=O)N[C@@H](Cc1ccc2ccccc2c1)C(=O)N[C@@H](Cc1ccc2ccccc2c1)C(=O)O (H-RRRR[2Nal][2Nal][2Nal]-OH)
- Activity (MRC5 [25]): Non-Toxic
- Time (Escherichia coli [26]): 2.5 h
- Activity (Lipid bilayer [1]): 6%
- remaining at 0.5 h, 100 µM [27]: 62%
- Activity (Cell membrane [28]): Dde
- Activity (Cell membrane [29]): 35%
- viability at 250 µg/mL (HepaRG [30]): 47%
- Time (Staphylococcus aureus [5]): 2 h
- MIC (Pseudomonas aeruginosa): 25 µg/mL (≈ 20.3 µM)
- MIC (Staphylococcus aureus [6]): 6.2 µg/mL (≈ 5.02 µM)
- MIC (Staphylococcus aureus [12]): 6.2 µg/mL (≈ 5.02 µM)
- Time (Staphylococcus aureus [14]): 3 h
- viability at 24 h, 250 ug/ml [31]: 69%
- Time (Escherichia coli [32]): 4 h
- Activity (Lipid bilayer [33]): Active
- HC50 at 2 h [34]: 130 µg/mL
- remaining at 24 h, 100 µM [35]: 32%
- Activity (Cell membrane [36]): Dde
- Activity (Lipid bilayer [23]): Dde

Structure (SMILES): N=C(N)NCCC[C@H](NC(=O)[C@H](CCCNC(=N)N)NC(=O)[C@@H](N)CCCNC(=N)N)C(=O)N[C@@H](CCCNC(=N)N)C(=O)N[C@H](C(=O)N[C@H](C(=O)N[C@H](C(=O)O)C(c1ccccc1)c1ccccc1)C(c1ccccc1)c1ccccc1)C(c1ccccc1)c1ccccc1 (H-RRRR[Dip][Dip][Dip]-OH)
- Activity (HepaRG [37]): Dde
- Time (Escherichia coli [26]): 2.5 h
- MIC (Escherichia coli [38]): 12.5 µg/mL (≈ 9.52 µM)
- Activity (Lipid bilayer [1]): 8%
- remaining at 0.5 h, 100 µM [27]: 69%
- Activity (HEK293): Dde
- Activity (Cell membrane [28]): Dde
- Activity (Cell membrane [29]): 35%
- Time (Staphylococcus aureus [5]): 2 h
- MIC (Pseudomonas aeruginosa): 12.5 µg/mL (≈ 9.52 µM)
- MIC (Staphylococcus aureus [6]): 6.2 µg/mL (≈ 4.72 µM)
- Activity (MRC5 [39]): Dde
- MIC (Staphylococcus aureus [12]): 6.2 µg/mL (≈ 4.72 µM)
- Time (Staphylococcus aureus [14]): 3 h
- Time (Escherichia coli [32]): 4 h
- Activity (Lipid bilayer [33]): Active
- HC50 at 2 h [34]: 145 µg/mL
- remaining at 24 h, 100 µM [35]: 21%
- Activity (Cell membrane [36]): Dde
- Activity (Lipid bilayer [23]): Dde

Source: ChEMBL document CHEMBL5154681, “Small Amphiphilic Peptides: Activity Against a Broad Range of Drug-Resistant Bacteria and Structural Insight into Membranolytic Properties” (J Med Chem, 2022)
